Measurements from US20200392108A1, “ANTIBODY-DRUG CONJUGATES AND RELATED COMPOUNDS, COMPOSITIONS AND METHODS” (Magenta Therapeutics, Inc., priority 2011, published 2020).
Where two headings read alike, the source gives them in different places. Square brackets hold non-standard residues; d marks the D form. Peptide text beside a SMILES is read from it. Dolaproine = CO[C@@H]([C@@H]1CCCN1)[C@@H](C)C(=O)O; Dil = CC[C@H](C)[C@H](NC)[C@@H](CC(=O)O)OC; NMeV = CN[C@H](C(=O)O)C(C)C

Test system: BT474 (HER2+) cell line
Assay: Standard cellular cytotoxicity assay, BT474
Assay type: cell-based, human
Source text: The cytotoxicity of tubulysins T1 and T2 was compared to the cytotoxicity of MMAF using the BT474 (HER2+) cell line in a standard cellular cytotoxicity assay.

Compound	IC50 [nM]	IC50 (Homo sapiens, BT-474) [nM]
CC[C@H](C)[C@@H]([C@@H](CC(=O)N1CCC[C@H]1[C@H](OC)[C@@H](C)C(=O)N[C@@H](Cc1ccccc1)C(=O)O)OC)N(C)C(=O)[C@@H](NC(=O)[C@@H](NC)C(C)C)C(C)C [MMAF, monomethylauristatin F] (H-[NMeV]V[Dil][Dolaproine]F-OH)	93	
CC[C@H](C)[C@H](NC(=O)[C@H]1CCCCN1C)C(=O)N(C)[C@H](C[C@@H](OC(C)=O)c1nc(C(=O)N[C@@H](Cc2ccccc2)C[C@H](C)C(=O)O)cs1)C(C)C [T2]		< 0.1
CC[C@H](C)[C@H](NC(=O)[C@H]1CCCCN1C)C(=O)N(C)[C@H](C[C@@H](OC(C)=O)c1nc(C(=O)O)cs1)C(C)C [T1]		11
